Reference: PMC11636681, “Pharmacokinetics and pharmacodynamics of antibacterial peptide NZX in Staphylococcus aureus mastitis mouse model” (Applied Microbiology and Biotechnology, 2024)
Positions of bridges follow the written chain, without caps; N, C: chain ends. Residues, ends and D or L forms follow the SMILES beside them.

Key:
[1] = system: S. aureus ATCC 43300; assay: In vitro dose-killing curves (24 h); assay type: cell-based, Staphylococcus aureus
Method: The in vitro dose-killing curves of NZX against the test S. aureus strains were conducted as previous described (Brinch et al. [2010]), with some modification. The S. aureus cells in mid-log phage were diluted. Then, the killing curves of NZX against S. aureus strains were carried out in the 48-well plate. Specifically, a volume of 50 μL NZX (0.6–150 μM) was mixed with 450 μL of the above diluted bacterial suspension (5 × 10^5 CFU/mL), and the mixtures were incubated in the Micro Oscillator for 24 h (600 rpm, 37 °C). Subsequently, the bacteria suspensions were plated on MHA medium to count. Lincomycin and ceftiofur were set as antibiotic controls, respectively. PBS was negative control. Results were expressed as the average of three independent experiments data.

[2] = system: three S. aureus strains; assay: Mouse mastitis model, histopathological analysis and scoring of mammary tissues; assay type: in vivo; conditions: mice infected with the three S. aureus strains, 100 μg/gland
From the text: The 7 to 8-weeks old ICR mice (80 females, 40 males) were housed in independent ventilated cages, and feed with autoclaved laboratory food and water. Female mice in heat were put into the cage of males (females:males, 2:1) overnight and checked for vaginal plugs at the following morning to induce pregnancy. ICR-lactating mice were used at 6 to 8 days after the birth of the offspring. The mouse mastitis model was established as previously described (Li et al. [2017]). Mice were randomly divided into nine groups: NC group (uninfected group), PC group (infected but without treatment), NZX groups (25, 50, 100, 200 and 400 μg/gland, respectively), lincomycin group (100 μg/gland), and ceftiofur group (100 μg/gland). Each experimental group has six independent experiments with three mice. Specially, the pups were removed 1 h before the intramammary injection of both L4 (on the left) and R4 (on the right) abdominal mammal glands. […]
After mouse sacrifice, one part of mammary tissue was taken for bacterial count, and the other part was used for the histopathological analysis. […] The bacterial number on each plate was counted and the results were expressed as Log10 CFU per gram of mammary tissues. […]

[3] = Stability of NZX in mammary gland tissue homogenate; assay type: in vitro ADME; conditions: mouse, 100 μg/mL in mammary gland tissue homogenate, 37 °C, SPE then HPLC–UV 280 nm, mean peak area / initial value, read-out: residual amount of NZX in mammary tissue homogenate
Method: (§1) A 0.5 g of mammary tissue or milk were weighed, homogenized, and transferred to a 10 mL polypropylene centrifuge tube, respectively, extracted sequentially by adding into a 3 mL of 0.1 M of McFarland buffer and 1% trichloroacetic acid (TCA), and cleaned by a C18 solid-phase extraction (SPE) cartridge (Oasis MAX 3 cc 60 mg and Oasis HLB 3 cc 60 mg, respectively, Waters, USA). Afterwards, a 2 mL of 45% acetonitrile with 2% formic acid and 3 mL of 45% acetonitrile were used to elute the columns, respectively, the collected eluents were freeze-dried and dissolved in 200 µL of deionized water and filtered by a […] sterile filter membrane before the analysis of high-performance liquid chromatography-ultraviolet (HPLC–UV). The HPLC–UV with a C18 reverse-phase column (ZORBAX Eclipse Plus C18 4.6 mm × 250 mm, 5 µm) conditions for detecting NZX were as follows: the mobile phase consisted of A: 0.1% trifluoroacetate […] in acetonitrile and B: 0.1%TFA in water; the injection volume was 40 μL; the wavelength of UV detector was 280 nm; flow rate was 1.0 mL/min; the column temperature was 35 °C, and the elution was conducted with a linear gradient of 20–45% mobile phase A for 16 min. The linear relationship, limits of detection (LOD), limits of quantitation (LOQ), accuracy and precision were determined by adding the known concentrations of NZX into the extracted blank matrix of mammary gland. Each concentration was conducted three times.
(§2) A 100 μg/mL of NZX was suspended in mammary gland tissue homogenate or milk, respectively, and then incubated at 37 °C for 0, 8, 16 and 24 h, respectively. Afterwards, samples were pretreated and quantified as the above methods. The results were expressed as a ratio of the mean peak area measured at different times divided by the mean value of the initial value.

[4] = Stability of NZX in milk; assay type: in vitro ADME; conditions: 100 μg/mL in milk, 37 °C, SPE then HPLC–UV 280 nm, mean peak area / initial value, read-out: retention rate in milk
Method: as §1, §2

[5] = system: S. agalactiae; conditions: against S. agalactiae; ref Wu et al. [2022]; cited from earlier work
From the text: MPCs and PAEs were also important parameters to allow antimicrobial dosage regimens to be developed in a much more scientific approach to reduce treatment cost, and the incidences of drug resistant bacteria and avoid unnecessary drug toxicity (Mackenzie and Gould [1993]).

Row | Structure (SMILES) | EC50 ([1]; Staphylococcus aureus, ATCC43300, 50% reduction in Log10 CFU at 24 h between minimum and maximum) [nM] | Cs ([1]; concentration causing no apparent growth in Log10 CFU at 24 h vs initial inoculum) [µM] | inflammatory symptoms of mammary tissue (H&E histology) ([2]; 24 h after treatment) | pathological scores of mammary tissues ([2]; compared with the PC group) | remaining at 8 h, 100 μg/mL ([3]; 8 h) [%] | remaining at 16 h, 100 μg/mL ([3]; 16 h) [%] | remaining at 24 h, 100 μg/mL ([3]; 24 h) [%] | remaining at 8 h, 100 μg/mL ([4]; 8 h) [%] | remaining at 16 h, 100 μg/mL ([4]; 16 h) [%] | remaining at 24 h, 100 μg/mL ([4]; 24 h) [%] | MPC [5] [µM]
1 | CO/N=C(\C(=O)N[C@@H]1C(=O)N2C(C(=O)O)=C(CSC(=O)c3ccco3)CS[C@H]12)c1csc(N)n1 [Ceftiofur] | 910 | 0.91 |  |  |  |  |  |  |  |  | 
2 | CC[C@H](C)[C@@H]1NC(=O)[C@H](CO)NC(=O)[C@H](CCCCN)NC(=O)[C@@H]2CSSC[C@@H](C(=O)N[C@@H](Cc3ccc(O)cc3)C(=O)O)NC(=O)[C@H](CCCCN)NC(=O)[C@@H]3CSSC[C@H](NC(=O)[C@H](CCC(N)=O)NC(=O)[C@H]([C@@H](C)CC)NC(=O)[C@H](CC(=O)O)NC(=O)[C@H](CC(=O)O)NC(=O)[C@H](CCC(=O)O)NC(=O)[C@H](CO)NC(=O)[C@H](Cc4c[nH]c5ccccc45)NC(=O)[C@@H]4CCCN4C(=O)CNC(=O)[C@H](CC(N)=O)NC(=O)[C@@H](NC(=O)CNC(=O)[C@H](Cc4ccccc4)NC(=O)CN)CSSC[C@H](NC(=O)[C@H](Cc4ccc(O)cc4)NC(=O)CNC(=O)CNC(=O)[C@H](CCCCN)NC(=O)[C@H](Cc4ccc(O)cc4)NC(=O)CNC(=O)[C@H](CCCCN)NC1=O)C(=O)N[C@@H](C)C(=O)N[C@@H](CCCNC(=N)N)C(=O)NCC(=O)NCC(=O)N[C@@H](Cc1ccccc1)C(=O)N[C@@H](C(C)C)C(=O)N3)C(=O)N[C@@H](Cc1c[nH]cn1)C(=O)N[C@@H](CC(N)=O)C(=O)N[C@@H](Cc1c[nH]cn1)C(=O)N2 [NZX] (H-GFGCNGPWSEDDIQCHNHCKSIKGYKGGYCARGGFVCKCY-OH; disulfide 4-30, 15-37, 19-39; N-terminus and C-terminus assumed) |  |  | obviously improved | significantly decreased | 72.2 | 48.4 | 47.9 | 103 | 91.8 | 85.4 | 1.82
